Residue numbers refer to the chain shown, from its start. In names and notes the source's numbering stands. Several values for one entry are separate records, joined by “and”; a condition that tells them apart may be missing. Equal values may be shown once. Entries after “also recorded” stand apart in the source; their conditions may differ. Read-outs that look alike come from different tables or passages of the source.
Experiments:
[1] = biological target: T1, Glycine max GmPDH1 variant N222D, SEQ ID NO: 2 (Glycine max, UniProt I1MYY4, N222D); test: ADH and PDH assay: steady-state kinetics and Tyr inhibition, GmPDH1 N222D; assay type: biochemical, Glycine max (soybean); details: versus wild-type GmPDH1
T1 sequence (I1MYY4 1-271 N222D): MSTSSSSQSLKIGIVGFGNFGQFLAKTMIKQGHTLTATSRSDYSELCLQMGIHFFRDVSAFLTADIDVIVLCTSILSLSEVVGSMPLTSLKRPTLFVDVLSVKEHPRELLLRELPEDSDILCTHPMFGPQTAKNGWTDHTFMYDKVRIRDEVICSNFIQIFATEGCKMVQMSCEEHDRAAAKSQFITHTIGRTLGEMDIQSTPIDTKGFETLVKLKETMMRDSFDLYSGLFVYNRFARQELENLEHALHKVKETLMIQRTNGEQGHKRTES
Protocol: (§1) Kinetic parameters of purified recombinant proteins were determined from assays conducted at varying arogenate (19.5 μM-5 mM) and prephenate concentration (23.4 μM-6 mM). Standard assay conditions were 25 mM HEPES pH 7.6, 50 mM KCl and 10% (v/v) ethylene glycol, and 0.5 mM NADP^+ with varied substrate, concentrations. Reactions were initiated by addition of enzyme and incubated at 37° C. monitored every 10-15 seconds at […] using a microplate reader (Tecan Genios). Kinetic parameters were determined by fitting initial velocity data to the Michaelis-Menten equation using the Origin software (OriginLab).
(§2) Arogenate was prepared by enzymatic conversion of prephenate (Sigma-Aldrich) as previously reported^56. For Tyr inhibition assays, Tyr was dissolved in a slightly basic solution (0.025 N NaOH) due to solubility issues, thus the concentration of lysis buffer was increased to 500 mM HEPES final concentration to buffer against the changes by addition of Tyr in the reaction. Reactions containing varying amounts of Tyr (10 μM-8 mM) with 0.5 mM NADP^+ and either 1 mM arogenate or 0.8 mM prephenate were monitored as above.

[2] = tested on: Peanut PDH/ADH (AipaensisVYE8T), Arachis ipaensis, wild type; test: ADH and PDH assay: steady-state kinetics and Tyr inhibition, peanut PDH/ADH; assay type: biochemical
Protocol: as §1, §2

[3] = biological target: T2, Medicago truncatula MtncADH variant D220C, SEQ ID NO: 10 (Medicago truncatula, UniProt A0A217FAR3, D220C); test: ADH and PDH assay: steady-state kinetics and Tyr inhibition, MtncADH D220C; assay type: biochemical; details: kcat/Km
T2 construct: D220C by site-directed mutagenesis
T2 sequence (A0A217FAR3 1-266 D220C): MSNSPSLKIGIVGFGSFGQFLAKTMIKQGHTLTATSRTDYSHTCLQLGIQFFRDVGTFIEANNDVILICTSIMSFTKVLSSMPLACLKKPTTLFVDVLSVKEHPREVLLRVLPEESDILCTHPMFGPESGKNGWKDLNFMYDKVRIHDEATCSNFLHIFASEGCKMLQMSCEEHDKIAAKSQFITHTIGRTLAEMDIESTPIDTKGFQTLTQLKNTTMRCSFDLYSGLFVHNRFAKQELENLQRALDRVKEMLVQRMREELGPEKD
Protocol: as §1, §2

[4] = tested on: Methanosaeta harundinacea MhTyrAp variant Q227E; test: Kinetic analysis of MhTyrAp Q227E mutant; assay type: biochemical
Protocol: (§3) FIGS. 14A-14B show a kinetic analysis of MhTyrAp wild-type and Q227E mutant enzymes. Kinetic analysis was performed with MhTyrAp wild-type (filled circle) and Q227E mutant (open square) enzymes using various concentrations of prephenate (FIG. 14A) and arogenate (FIG. 14B). Initial velocity values at each substrate concentration were fit to the Michaelis-Menten equation using Origin software. Kinetic analyses were conducted for MhTyrA wild-type using 3.41 μg of purified recombinant enzyme, and 4.56 μg and 2.28 μg of purified recombinant Q227E using prephenate and arogenate, respectively.
(§4) ADH and PDH assays were performed using purified recombinant enzymes for SsTyrA and MhTyrA Wt and Q227E mutant, while the E. coli cell lysate was used for OiTyrA as expression and purification of this enzyme was unsuccessful. Reactions contained 0.8 mM substrate (arogenate or prephenate) and 0.8 mM cofactor (NADP+ or NAD+) together with reaction buffer (25 mM HEPES pH 7.6, 50 mM KCl, 10% (v/v) ethylene glycol). For OiTyrA assays containing cell lysates, reactions were incubated for 45 minutes and analyzed using HPLC as previously reported (Schenck et al., 2015). For pure enzymes, reactions were monitored every 10-15 seconds for reduced cofactor at A340 nm using a microplate reader (Tecan Genios). Kinetic parameters of purified recombinant enzymes were determined from assays containing varying concentrations of arogenate (39.1 μM-5 mM) or prephenate (39.1 μM-5 mM) substrate and monitored 10-15 seconds for reduced cofactor at A340 nm using a microplate reader (Tecan Genios). Kinetic parameters were determined by fitting initial velocity data to the Michaelis-Menten equation using Origin software (OriginLab) from technical replicate assays (n=3). Arogenate substrate was prepared by enzymatic conversion of prephenate (Sigma-Aldrich). All enzyme assays were conducted at a reaction time and protein concentration that were in the linear range and proportional to reaction velocity.

[5] = tested on: MhTyrA (MhTyrAp; KUK94425.1), Methanosaeta harundinacea TyrA, wild-type; test: Kinetic analysis of MhTyrAp wild-type; assay type: biochemical; details: NADP+ cofactor
Protocol: as §3, §4

[6] = biological target: T3, MtPDH (MtPDH1; Mt3g071980), Medicago truncatula prephenate dehydrogenase, wild type (Medicago truncatula, UniProt A0A0A0R205); test: ADH and PDH assay: steady-state kinetics and Tyr inhibition, MtPDH wild type; assay type: biochemical; details: preference for prephenate
T3 sequence (A0A0A0R205 1-268): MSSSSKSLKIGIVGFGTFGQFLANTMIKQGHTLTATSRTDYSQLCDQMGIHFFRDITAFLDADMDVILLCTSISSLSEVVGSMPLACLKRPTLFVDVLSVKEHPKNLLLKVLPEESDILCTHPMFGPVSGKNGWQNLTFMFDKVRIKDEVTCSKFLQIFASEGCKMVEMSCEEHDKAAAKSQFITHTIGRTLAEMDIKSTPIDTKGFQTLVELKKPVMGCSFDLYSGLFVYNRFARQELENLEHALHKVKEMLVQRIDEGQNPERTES
Protocol: as §1
as §2, with “Reactions containing varying amounts of Tyr (10 μM-8 mM) with 0.5 mM NADP^+ and either 1 mM arogenate or 0.8 mM prephenate were monitored as above.” left out

[7] = biological target: T4, Medicago truncatula MtPDH variant C220D, SEQ ID NO: 1 (Medicago truncatula, UniProt A0A0A0R205, C220D); test: ADH and PDH assay: steady-state kinetics and Tyr inhibition, MtPDH C220D; assay type: biochemical; details: compared to wild-type MtPDH
T4 sequence (A0A0A0R205 1-268 C220D): T3 sequence (A0A0A0R205 1-268) with C220D
Protocol: as §1, §2

[8] = biological target: T5, GmPDH1 (Gm18g02650), soybean (Glycine max) prephenate dehydrogenase, wild type (Glycine max, UniProt I1MYY4); test: ADH and PDH assay: steady-state kinetics and Tyr inhibition, GmPDH1 wild type; assay type: biochemical
T5 construct: homodimer
T5 sequence (I1MYY4 1-271): T1 sequence (I1MYY4 1-271 N222D) with D222N
Protocol: as §1
as §2, with “Reactions containing varying amounts of Tyr (10 μM-8 mM) with 0.5 mM NADP^+ and either 1 mM arogenate or 0.8 mM prephenate were monitored as above.” left out

[9] = PDH assay of microbial TyrA enzymes (Example 2); assay type: biochemical; details: 0.8 mM arogenate or prephenate, 0.8 mM cofactor
Protocol: as §4

[10] = ADH assay of microbial TyrA enzymes (Example 2); assay type: biochemical; details: ADH activity, NADP+ versus NAD+, 0.8 mM
Protocol: as §4

[11] = PDH assay: steady-state kinetics of purified recombinant plant enzymes with prephenate; assay type: biochemical; details: prephenate versus arogenate, NADP+ cofactor
Excerpt: As used herein, a polypeptide may “have greater arogenate dehydrogenase activity than prephenate dehydrogenase activity” or “have greater prephenate dehydrogenase activity than arogenate dehydrogenase activity” when the steady-state kinetic parameters (kcat/Km (mM^−1s^−1)) for arogenate dehydrogenase activity are greater than the steady-state parameters (kcat/Km (mM^−1s^−1)) for prephenate dehydrogenase activity or when the steady-state kinetic parameters (kcat/Km (mM^−1s^−1)) for prephenate dehydrogenase activity are greater than the steady-state parameters (kcat/Km (mM^−1s^−1)) for arogenate dehydrogenase activity. Steady-state kinetic parameters may be measured using techniques similar to those described by the inventors in the Examples. Briefly, kinetic parameters of purified polypeptides can be determined from assays conducted at varying arogenate and prephenate concentrations. Standard assay conditions include 25 mM HEPES pH 7.6, 50 mM KCl and 10% (v/v) ethylene glycol, and 0.5 mM NADP^+ with varied substrate, concentrations. Reactions can be initiated by the addition of the polypeptide and incubated at 37° C. monitored every 10-15 seconds at A340nm using a microplate reader. Kinetic parameters may be determined by fitting initial velocity data to the Michaelis-Menten equation using the Origin software.
as §1

[12] = Tyr inhibition assay of ADH activity (arogenate substrate); assay type: biochemical; details: Tyr up to 8 mM
Protocol: as §2

Molecule: O=C(O)C(=O)CC1(C(=O)O)C=CC(O)C=C1 (centres unmarked) [prephenate]
- fold reduction in kcat/Km with prephenate [1]: 115 fold
- Km ([2]; 0.5 mM NADP^+, pH 7.6, 37° C.): 190 ± 10 µM
- kcat ([2]; 0.5 mM NADP^+, pH 7.6, 37° C.): 2.8 ± 0.2 s⁻¹
- kcat/Km ([2]; 0.5 mM NADP^+, pH 7.6, 37° C.): 14,740 M^−1 s^−1
- kcat/Km ([2]; FIG. 7A, with NADP^+): 14.9 mM⁻¹ s⁻¹
- fold preference for prephenate over arogenate [3]: 1.7 fold
- kcat ([4]; NADP+ cofactor, pH 7.6): 0.285 ± 0.17 s⁻¹
- kcat/Km ([4]; NADP+ cofactor, pH 7.6): 100 M⁻¹ s⁻¹ and 107 ± 10 M⁻¹ s⁻¹
- Km ([4]; NADP+ cofactor, pH 7.6, read-out: Km): 2700 µM and 2670 µM
- Km ([4]; read-out: Km for prephenate): 2400 µM
- fold increase in Km for prephenate ([4]; versus wild-type): ~10 fold
- fold reduction of catalytic efficiency (kcat/Km) ([4]; versus wild-type): 60 fold
- Km [5]: 378 µM
- Km ([5]; pH 7.6): 378 ± 20 µM
- kcat ([5]; pH 7.6): 2.4 s⁻¹ and 2.44 ± 0.38 s⁻¹
- kcat/Km ([5]; pH 7.6): 6400 M⁻¹ s⁻¹ and 6440 ± 20 M⁻¹ s⁻¹
- fold higher kcat/Km, prephenate versus arogenate [6]: 21 fold
- fold higher Km [7]: 31 fold
- kcat ([8]; 0.5 mM NADP^+, pH 7.6, 37° C.): 30.4 s⁻¹
- fold higher kcat/Km, prephenate versus arogenate ([8]; preference for prephenate): 139 fold

B1: SsTyrA: TyrA from Sediminispirochaeta smaragdinae DSM 11293 (spirochaetes), recombinant (protein)
chain: MVEHTVGIYGLGRFGSFWAKSLAASGLKVIGYNRSKRALPEGVVSGSETEVLSCNTLFYCVAISSFEEVLSRTAAKIGKHTLVFDTCSVKVEPVRTMERLLPQGCTFAGSHPMFGPDSASEGMDGLPMVLCPGRDDEGKVDFWRHHFSKMGLRVIEITADRHDKEAAYTQGITHVVGRILGELDLHESEIATSGYKRLLQVREQTCNDPLQLFIDLQRYNPYTHGMRMELTSALEQIMTLFAQADLPPDRP
modifications: S. smaragdinae; misc_feature (1)..(251): S. smaragdinae TyrA SsTyrA
notes: TyrA from Sediminispirochaeta smaragdinae DSM 11293 (spirochaetes), recombinant
- ADH and PDH activity (in words) [9]: showed ADH activity; also recorded: PDH activity was not detectable
- cofactor preference (in words) [10]: slight preference for NAD+

B2: OiTyrA: TyrA from Ochrobactrum intermedium LMG 3301 (α-proteobacteria), E. coli cell lysate (protein)
chain: MRPLRGQSMSRDRNQHTKIGIIGFGAFGQLIARHLNPYFRLYAYDPAADLEQTALMHGVALASVEQVAACDIVILATPVATLESVVDKIAPHLCPGALVLDVGSVKVGPADIMRRGLPAHVDIVATHPLFGPQSARHGIAGLKIAVCPVRGTRFHRVAAFLKKHLSLNVIVTTPEDHDREAAMVQGLTHLIARVLVQMEPLPTRMTTKSFDLLMQAVSMVRHDAPEVFQAIEHANPYAPQVRRHFFALADQINEELARVQPMAAREEAA
modifications: O. intermedium; misc_feature (1)..(269): O. intermedium TyrA OiTyrA
notes: TyrA from Ochrobactrum intermedium LMG 3301 (α-proteobacteria), E. coli cell lysate
- ADH and PDH activity (in words) [9]: had ADH but not PDH activity
- cofactor preference (in words) [10]: strongly preferred NAD+

B3: AtADH2 D241N: site-directed mutant of Arabidopsis canonical ADH, Asp241 to Asn (protein)
chain: MLLHFSPAKPLISPPNLRRNSPTFLISPPRSLRIRAIDAAQIFDYETQLKSEYRKSSALKIAVLGFGNFGQFLSKTLIRHGHDLITHSRSDYSDAANSIGARFFDNPHDLCEQHPDVVLLCTSILSTESVLRSFPFQRLRRSTLFVDVLSVKEFPKALFIKYLPKEFDILCTHPMFGPESGKHSWSGLPFVYDKVRIGDAASRQERCEKFLRIFENEGCKMVEMSCEKHDYYAAGSQFVTHTMGRVLEKYGVESSPINTKGYETLLDLVENTSSNSFELFYGLFMYNPNALEQLERLDMAFESVKKELFGRLHQQYRKQMFGGEVQSPKKTEQKLLNDGGVVPMNDISSSSSSSSSSS
modifications: Synthetic: AtADH2 D241N
notes: site-directed mutant of Arabidopsis canonical ADH, Asp241 to Asn
- substrate specificity: PDH versus ADH activity (in words) [11]: gained PDH activity at the expense of ADH activity
- feedback inhibition by Tyr (in words) [12]: significantly less sensitive to Tyr inhibition than the respective wild-type enzymes
